In ChEMBL document CHEMBL1201862, “PubChem BioAssay data set” (2004):
Active and inactive are the calls of the source.

Key:
[1] = biological target: T1, Polyadenylate-binding protein 1 (Homo sapiens, UniProt P11940); assay: PABP1 MLLE–PAM2 binding inhibitor potency, dose response, biochemical, fluorescence polarization, FITC-PAM2 peptide (AID 602259); format: functional; conditions: read-out: IC50_Mean
[2] = biological target: T1, Polyadenylate-binding protein 1; assay: PABP1 MLLE–PAM2 interaction inhibitors, dose response, miRNA deadenylation inhibitor project, biochemical, fluorescence polarization, Cy5-PAM2 peptide, secondary (AID 602260); format: functional; conditions: read-out: IC50_Mean
[3] = biological target: FAD-linked sulfhydryl oxidase ALR (Homo sapiens, UniProt P55789); assay: inhibitors of human ALR sulfhydryl oxidase, dose response, biochemical, H2O2 detection, luminescence, cherry-pick (AID 493248)
FAD-linked sulfhydryl oxidase ALR, sequence (P55789 whole entry): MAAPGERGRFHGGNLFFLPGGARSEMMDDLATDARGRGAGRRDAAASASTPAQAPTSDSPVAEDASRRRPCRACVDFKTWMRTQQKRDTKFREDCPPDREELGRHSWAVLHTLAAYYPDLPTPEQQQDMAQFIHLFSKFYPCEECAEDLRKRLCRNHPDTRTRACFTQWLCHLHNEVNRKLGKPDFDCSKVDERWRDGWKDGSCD

[4] = biological target: T2, Heat shock factor protein 1 (Mus musculus, UniProt P38532); assay: inhibition of MG132-induced HSE-luciferase signal, confirmation, cell-based, NIH3T3, luminescence, dose retest (AID 2382); format: functional;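 further: NIH3T3 fibroblasts with HSF1-driven luciferase reporter stressed by proteasome inhibitor MG132; luminescence from HSF1-driven luciferase expression after 8 hours of MG132 stress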
T2 sequence (P38532 whole entry): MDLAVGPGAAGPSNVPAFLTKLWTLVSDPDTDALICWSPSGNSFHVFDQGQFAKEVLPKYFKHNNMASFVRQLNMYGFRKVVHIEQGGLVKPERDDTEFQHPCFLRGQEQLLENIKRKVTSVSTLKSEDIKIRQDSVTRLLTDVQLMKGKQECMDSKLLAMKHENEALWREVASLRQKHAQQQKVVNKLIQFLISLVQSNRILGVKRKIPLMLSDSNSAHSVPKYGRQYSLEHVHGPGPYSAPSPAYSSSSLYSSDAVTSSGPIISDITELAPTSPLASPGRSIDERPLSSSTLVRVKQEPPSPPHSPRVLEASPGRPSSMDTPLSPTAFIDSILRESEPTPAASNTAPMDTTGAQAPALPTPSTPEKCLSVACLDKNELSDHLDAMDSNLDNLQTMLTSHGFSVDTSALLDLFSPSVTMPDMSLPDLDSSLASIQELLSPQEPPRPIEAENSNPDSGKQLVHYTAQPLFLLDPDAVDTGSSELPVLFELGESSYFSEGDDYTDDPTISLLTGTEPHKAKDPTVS

Cytochrome P450 2D6 = Cytochrome P450 2D6 (Homo sapiens, UniProt P10635);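 further: CYP2D6 member of a cytochrome P450 panel assay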
Cytochrome P450 2D6, sequence (P10635 whole entry): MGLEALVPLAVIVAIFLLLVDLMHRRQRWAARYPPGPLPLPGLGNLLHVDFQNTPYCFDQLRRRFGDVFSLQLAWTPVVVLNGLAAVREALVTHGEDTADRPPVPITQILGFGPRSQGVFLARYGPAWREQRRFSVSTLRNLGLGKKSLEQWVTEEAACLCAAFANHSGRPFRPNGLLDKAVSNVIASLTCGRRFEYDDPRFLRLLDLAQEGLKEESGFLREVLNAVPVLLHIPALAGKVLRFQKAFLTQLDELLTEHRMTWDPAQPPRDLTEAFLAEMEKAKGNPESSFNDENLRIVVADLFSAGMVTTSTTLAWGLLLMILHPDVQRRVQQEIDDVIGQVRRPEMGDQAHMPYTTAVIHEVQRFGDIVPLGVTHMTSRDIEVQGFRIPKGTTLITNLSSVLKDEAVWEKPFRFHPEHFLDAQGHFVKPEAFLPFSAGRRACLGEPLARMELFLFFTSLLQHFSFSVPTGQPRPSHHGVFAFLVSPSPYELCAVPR

[5] = biological target: Luciferin 4-monooxygenase (Photinus pyralis, UniProt P08659); assay: firefly luciferase enzyme inhibitors, dose response, biochemical, luminescence (AID 1891)
Luciferin 4-monooxygenase, sequence (P08659 whole entry): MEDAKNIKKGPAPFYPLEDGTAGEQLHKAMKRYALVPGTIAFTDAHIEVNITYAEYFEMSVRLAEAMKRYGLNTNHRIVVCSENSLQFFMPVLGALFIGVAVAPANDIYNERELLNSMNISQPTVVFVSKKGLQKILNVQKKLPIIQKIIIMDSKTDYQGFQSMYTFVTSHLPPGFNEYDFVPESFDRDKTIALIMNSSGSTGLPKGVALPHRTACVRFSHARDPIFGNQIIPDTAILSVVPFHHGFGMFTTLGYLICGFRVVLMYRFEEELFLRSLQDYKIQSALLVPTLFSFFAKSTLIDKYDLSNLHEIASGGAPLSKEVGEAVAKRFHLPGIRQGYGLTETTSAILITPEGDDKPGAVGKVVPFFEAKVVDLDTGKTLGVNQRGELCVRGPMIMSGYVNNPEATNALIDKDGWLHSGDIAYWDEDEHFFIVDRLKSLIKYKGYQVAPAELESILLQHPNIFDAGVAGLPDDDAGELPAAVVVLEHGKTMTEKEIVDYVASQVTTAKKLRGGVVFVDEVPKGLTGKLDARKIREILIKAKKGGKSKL

[6] = Luminescence Cell-Based Dose Confirmation HTS to Identify Inhibitors of Platelet Dense Granule Release. [Related pubchem assays: 1663 (Primary HTS), 1678 (Summary of Project)]; format: functional
Cytochrome P450 2C9 = Cytochrome P450 2C9 (Homo sapiens, UniProt P11712)
Cytochrome P450 2C9, sequence (P11712 whole entry): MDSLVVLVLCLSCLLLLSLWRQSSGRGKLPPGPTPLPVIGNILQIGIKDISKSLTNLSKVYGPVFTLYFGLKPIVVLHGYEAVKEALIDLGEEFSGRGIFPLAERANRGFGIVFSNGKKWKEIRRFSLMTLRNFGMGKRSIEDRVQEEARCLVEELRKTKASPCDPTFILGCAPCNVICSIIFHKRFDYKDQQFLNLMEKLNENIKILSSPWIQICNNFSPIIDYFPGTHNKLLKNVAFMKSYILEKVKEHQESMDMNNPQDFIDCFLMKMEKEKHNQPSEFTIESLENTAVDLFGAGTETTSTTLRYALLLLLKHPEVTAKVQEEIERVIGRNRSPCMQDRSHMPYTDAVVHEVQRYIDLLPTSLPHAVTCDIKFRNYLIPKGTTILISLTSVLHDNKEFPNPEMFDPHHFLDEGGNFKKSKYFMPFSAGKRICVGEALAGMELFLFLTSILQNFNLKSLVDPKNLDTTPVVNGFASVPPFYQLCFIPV

[7] = inhibitors of firefly luciferase expression or activity, dose response, H4 neuroglioma cells, luminescence (AID 1990); format: functional, cell-based
[8] = Luminescence Cell-Based Dose Retest to Confirm Inhibitors of Cancer Stem Cells. [Related pubchem assays (depositor defined):AID2717, AID2721]; format: functional; conditions: Homo sapiens
[9] = inhibitors of SNCA 5'UTR-driven reporter translation, confirmation, H4 neuroglioma cells, luminescence (AID 1988); format: functional, cell-based
Paired box protein Pax-8 = Paired box protein Pax-8 (Homo sapiens, UniProt Q06710); assay: inhibitors of PAX8-driven TPO luciferase reporter, dose response, RMG-I cells, cherry-pick (AID 687027); format: functional, cell-based;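 further: luciferase reporter driven by Pax8 target thyroperoxidase promoter measured by SteadyGlo luminescence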
Paired box protein Pax-8, sequence (Q06710 whole entry): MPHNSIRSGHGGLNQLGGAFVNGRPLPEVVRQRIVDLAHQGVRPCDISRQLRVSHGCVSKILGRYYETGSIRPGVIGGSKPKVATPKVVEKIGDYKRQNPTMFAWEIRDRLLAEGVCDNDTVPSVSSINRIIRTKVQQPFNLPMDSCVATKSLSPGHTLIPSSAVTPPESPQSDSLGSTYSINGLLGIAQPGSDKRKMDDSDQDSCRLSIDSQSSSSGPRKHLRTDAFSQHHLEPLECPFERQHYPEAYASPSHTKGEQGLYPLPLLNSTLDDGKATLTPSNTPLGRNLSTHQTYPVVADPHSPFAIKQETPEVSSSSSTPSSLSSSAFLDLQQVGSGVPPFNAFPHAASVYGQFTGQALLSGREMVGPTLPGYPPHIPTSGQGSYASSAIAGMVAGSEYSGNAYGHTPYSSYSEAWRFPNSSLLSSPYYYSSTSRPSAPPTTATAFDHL

[10] = Luminescence Cell-Based Dose Response HTS to Identify Inhibitors of 5'UTR Stem-Loop Driven Prion Protein mRNA Translation in H4 Neuroglioblastoma Cells. [Related pubchem assays: 1827 (Project Summary), 1813 (Primary HTS)]; format: functional
Cytochrome P450 1A2 = biological target: T3, Cytochrome P450 1A2 (Homo sapiens, UniProt P05177);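 further: PubChem cytochrome P450 panel assay, CYP1A2 panel member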
T3 sequence (P05177 whole entry): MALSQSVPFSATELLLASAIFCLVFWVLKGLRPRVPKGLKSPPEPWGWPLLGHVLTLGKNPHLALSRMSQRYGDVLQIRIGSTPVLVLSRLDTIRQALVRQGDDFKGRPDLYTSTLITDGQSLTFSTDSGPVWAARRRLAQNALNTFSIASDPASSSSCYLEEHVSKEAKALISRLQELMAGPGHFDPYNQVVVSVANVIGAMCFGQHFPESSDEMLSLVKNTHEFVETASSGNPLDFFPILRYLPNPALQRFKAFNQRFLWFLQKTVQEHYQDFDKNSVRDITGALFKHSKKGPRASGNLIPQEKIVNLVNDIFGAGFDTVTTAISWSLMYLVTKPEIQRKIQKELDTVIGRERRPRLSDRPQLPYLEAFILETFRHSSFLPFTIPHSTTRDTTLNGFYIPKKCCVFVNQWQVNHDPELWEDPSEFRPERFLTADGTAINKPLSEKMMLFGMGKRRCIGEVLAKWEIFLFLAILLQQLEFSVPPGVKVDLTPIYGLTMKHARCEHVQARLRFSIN

Cytochrome P450 2C19 = Cytochrome P450 2C19 (Homo sapiens, UniProt P33261); assay: Cytochrome panel assay with activity outcomes. Panel member name: p450-cyp2c19 Compounds with AC50 equal or less than 10 uM are considered active; format: functional; conditions: read-out: AC50
Cytochrome P450 2C19, sequence (P33261 whole entry): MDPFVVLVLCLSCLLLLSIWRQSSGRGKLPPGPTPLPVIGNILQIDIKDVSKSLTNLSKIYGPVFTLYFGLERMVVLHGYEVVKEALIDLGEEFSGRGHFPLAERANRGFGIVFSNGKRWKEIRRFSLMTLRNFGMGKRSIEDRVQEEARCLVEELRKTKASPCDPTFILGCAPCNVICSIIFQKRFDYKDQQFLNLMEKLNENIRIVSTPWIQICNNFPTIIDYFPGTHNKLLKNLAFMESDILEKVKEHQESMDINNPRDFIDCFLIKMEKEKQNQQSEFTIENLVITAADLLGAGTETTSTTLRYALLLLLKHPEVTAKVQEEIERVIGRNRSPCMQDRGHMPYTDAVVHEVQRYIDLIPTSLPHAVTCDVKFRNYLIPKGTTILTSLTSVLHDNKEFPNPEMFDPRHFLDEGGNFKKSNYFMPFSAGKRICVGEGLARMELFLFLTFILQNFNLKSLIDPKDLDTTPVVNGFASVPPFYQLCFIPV

[11] = tested on: Streptococcus sp. 'group A'; assay: growth inhibition of control SK(-) GAS strain, dose response, counter-screen for streptokinase expression inhibitor project, luminescence, kanamycin, BacTiterGlo, confirmation (AID 1900); format: functional, organism-based
Streptokinase A = biological target: T4, Streptokinase A (Streptococcus pyogenes serotype M1, UniProt P10520); assay: S. pyogenes streptokinase expression inhibitors, potency, dose response, plasminogen activation absorbance, OD405 (AID 1914); format: functional, Streptococcus pyogenes M1 GAS;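 further: secreted streptokinase activity via plasminogen activation per viability signal from cell pellet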
T4 sequence (P10520 whole entry): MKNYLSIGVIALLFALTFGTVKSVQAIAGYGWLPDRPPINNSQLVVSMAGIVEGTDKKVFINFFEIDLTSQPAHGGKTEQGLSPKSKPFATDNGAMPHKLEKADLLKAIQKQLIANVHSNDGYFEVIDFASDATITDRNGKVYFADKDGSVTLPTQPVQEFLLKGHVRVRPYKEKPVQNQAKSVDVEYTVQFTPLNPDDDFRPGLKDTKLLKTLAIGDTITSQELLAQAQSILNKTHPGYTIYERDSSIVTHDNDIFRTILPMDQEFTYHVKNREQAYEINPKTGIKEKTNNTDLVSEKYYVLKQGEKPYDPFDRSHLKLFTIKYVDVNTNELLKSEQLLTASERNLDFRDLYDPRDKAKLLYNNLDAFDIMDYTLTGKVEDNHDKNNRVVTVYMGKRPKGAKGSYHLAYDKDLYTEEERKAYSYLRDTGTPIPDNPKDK

Streptococcus = assay: Group A Streptococcus viability loss, dose response, counter-screen for streptokinase expression inhibitor project, luminescence, BacTiterGlo (AID 1915); format: functional, organism-based;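 further: potency for reduction of bacterial viability or growth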

T1 sequence (P11940 whole entry): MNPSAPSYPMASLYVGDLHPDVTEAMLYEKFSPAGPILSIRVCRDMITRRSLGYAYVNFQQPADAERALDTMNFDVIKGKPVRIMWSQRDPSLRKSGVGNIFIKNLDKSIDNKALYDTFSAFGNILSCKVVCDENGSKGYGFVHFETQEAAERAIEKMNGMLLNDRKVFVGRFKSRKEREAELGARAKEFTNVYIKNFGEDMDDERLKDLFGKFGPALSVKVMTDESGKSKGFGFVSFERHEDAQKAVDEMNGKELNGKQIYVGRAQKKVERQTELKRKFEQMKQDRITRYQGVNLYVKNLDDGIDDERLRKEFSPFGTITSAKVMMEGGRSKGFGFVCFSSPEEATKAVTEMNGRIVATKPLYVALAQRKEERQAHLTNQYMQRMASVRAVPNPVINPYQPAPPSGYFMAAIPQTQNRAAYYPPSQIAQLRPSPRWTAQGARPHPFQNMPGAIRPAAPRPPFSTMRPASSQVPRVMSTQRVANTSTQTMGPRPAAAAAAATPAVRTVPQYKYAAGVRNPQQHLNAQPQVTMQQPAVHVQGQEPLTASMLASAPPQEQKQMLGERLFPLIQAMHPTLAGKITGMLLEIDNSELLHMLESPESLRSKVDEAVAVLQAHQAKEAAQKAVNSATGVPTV

CC1CC(C)(C)NC(=S)S1 (stereo not drawn)
IC50 [1]: > 66 µM (inactive) | IC50 [2]: > 66 µM (inactive)

Cc1cc(NC(=O)C2CCCN(S(=O)(=O)c3c[nH]cn3)C2)ccc1Br (stereo not drawn)
AC50 [3]: 69.2 µM (active)

CCN(CC)c1ccc(C2CC(=O)Nc3cc(OC)c(OC)cc32)cc1 (stereo not drawn)
AC50 [3]: 2.47 µM (active)

OCCNc1nc2nonc2nc1NCCO
EC50 [4]: > 195 µM (not active)

CCOC(=O)C1(Cc2ccc(OC)cc2)CCN(C(=O)c2csc(C)n2)CC1
EC50 [4]: > 195 µM (not active)

c1csc(CN2CC[C@@]3(CCCNC3)C2)n1
AC50 (Cytochrome P450 2D6): 12.6 µM (inconclusive)

COc1ccc(N2CCN(C(=O)NCc3ccc(OC)c(OC)c3)CC2)cc1
AC50 [3]: 5.76 µM (active)

O=C(CSc1ccc2nnc(-c3ccccc3)n2n1)N1CCCCC1
IC50 [1]: > 66 µM (inactive) | IC50 [2]: > 66 µM (inactive)

Cc1cc(C#N)c2ccccc2n1
EC50 [5]: > 112 µM (not active) | EC50 [6]: > 112 µM (not active)

Cc1ccc(S(=O)(=O)N2CCCC(C(=O)NCCc3ccc4c(c3)OCO4)C2)cc1 (stereo not drawn)
EC50 [4]: > 195 µM (not active)

CC(C)c1cc(C(N)=O)c(NC(=O)C2CCC2)s1
AC50 [3]: 9.12 µM (active)

O=C(Cc1ccc2c(c1)CCCC2)Nc1ccccc1Br
IC50 [1]: > 66 µM (inactive) | IC50 [2]: > 66 µM (inactive) | AC50 (Cytochrome P450 2C9): 15.8 µM (inconclusive)

COc1cccc(N2CCN(Cc3cccnc3)CC2)c1
AC50 [3]: 10.3 µM (active)

COc1ccc(C(=S)N2CCN(c3ccccc3C)CC2)cc1
IC50 [1]: > 66 µM (inactive) | IC50 [2]: > 66 µM (inactive)

Cc1ccc(-n2c(C)cc3c2CCCC3=O)cc1
IC50 [1]: 41.2 µM (inactive) | IC50 [2]: > 66 µM (inactive)

COc1cc(NC(=O)CSc2nnnn2-c2ccccc2)cc(OC)c1OC
EC50 [4]: > 195 µM (not active)

Cc1nnc2nc(SCC(=O)NC3CCCCC3)n(-c3ccc(Br)cc3)c(N)c1-2
EC50 [7]: 14.6 µM (active) | AC50 [8]: 9.82 µM (active) | EC50 [9]: 9.53 µM (active) | AC50 (Paired box protein Pax-8): 8.51 µM (active) | EC50 [10]: 13.9 µM (active)

O=C(NCc1cccnc1)C(=O)NCC(c1ccco1)N1CCN(c2ccc(F)cc2)CC1 (stereo not drawn)
AC50 [3]: 6.41 µM (active)

O=C(c1ccccc1)N(CCO)Cc1cc2cc3c(cc2nc1O)OCCO3
IC50 [1]: > 66 µM (inactive) | IC50 [2]: > 66 µM (inactive)

Cc1cccc(NC2(C(F)(F)F)N=C3SCCN3C2=O)n1 (stereo not drawn)
IC50 [1]: > 66 µM (inactive) | IC50 [2]: > 66 µM (inactive)

c1csc(-c2nnsc2-c2nc3ccccc3[nH]2)c1
EC50 [4]: > 195 µM (not active)

Cc1cccc(CC(=O)N2CCN=C2SCc2ccc([N+](=O)[O-])cc2)c1
IC50 [1]: > 66 µM (inactive) | IC50 [2]: > 66 µM (inactive)

O=C(N/N=C1/CC/C(=N/NC(=O)c2cccnc2)CC1)c1cccnc1
AC50 [3]: 0.879 µM (active)

Cc1cc(C)cc(NC(S)=Nc2ccc(Cl)c(Cl)c2)c1
IC50 [1]: > 66 µM (inactive) | IC50 [2]: > 66 µM (inactive)

CC(=O)C1C(c2ccc(Cl)cc2)NC(=O)NC1(O)C(F)(F)F (stereo not drawn)
EC50 [5]: > 112 µM (not active) | EC50 [6]: > 112 µM (not active)

COc1ccc(Cl)cc1NC(=O)Nc1cc(C)on1
EC50 [5]: > 112 µM (not active) | EC50 [6]: > 112 µM (not active)

CCc1c(C)c2cc(Cl)c(O)c(CN3CCCCC3)c2oc1=O
AC50 [3]: 9.26 µM (active)

CCC(=O)N1CCc2cc(S(=O)(=O)NCCC(=O)N3CCN(c4cccc(C)c4)C(C)C3)ccc21 (stereo not drawn)
AC50 [3]: 72.4 µM (active)

O=C(NCC1CC1)Nc1cccs1
AC50 [3]: 4.97 µM (active)

Cc1ccccc1OCC(=O)Nc1ccc2c(c1)C(=O)N(CCC(=O)O)C2=O
EC50 [4]: 32.6 µM (active)

O=C1OC(NC(=O)c2ccccc2)C(n2cc(CO)nn2)=C1Cl (stereo not drawn)
EC50 [4]: 35.7 µM (active)

Cc1c(C(=O)N2CCCC2)sc(NC(=O)c2cccc(Cl)c2)c1C#N
EC50 [5]: > 112 µM (not active) | EC50 [6]: > 112 µM (not active)

COc1ccc(OCC(=O)N2CCN(c3cccc(C(F)(F)F)c3)CC2)cc1
EC50 [4]: > 195 µM (not active)

COC(=O)c1[nH]c2ccccc2c1NC(=O)CN1CCN(C(=O)c2ccco2)CC1
EC50 [5]: > 112 µM (not active) | EC50 [6]: > 112 µM (not active)

COc1ccc(C(=O)NC(=S)NCCO)cc1Br
EC50 [4]: > 195 µM (not active)

CC(C)c1nnc(SCC(=O)NCCC2=CCCCC2)n1N
IC50 [1]: > 66 µM (inactive) | IC50 [2]: > 66 µM (inactive)

Cc1cc(NC(=O)c2ccccc2Cl)no1
AC50 (Cytochrome P450 1A2): 31.6 µM (inconclusive) | EC50 [5]: > 112 µM (not active) | EC50 [6]: > 112 µM (not active) | AC50 (Cytochrome P450 2C19): 14.1 µM (inconclusive)

COCCn1c(SCC(=O)NCC2CCCO2)nc2c(c1=O)SCC2 (stereo not drawn)
IC50 [1]: > 66 µM (inactive) | IC50 [2]: > 66 µM (inactive)

CCn1c(S)nnc1CN1C(=O)CSc2ccccc21
AC50 [3]: 1.85 µM (active)

Cc1cc(NC(=O)CSc2nccn2-c2cccc(Cl)c2)no1
IC50 [1]: > 66 µM (inactive) | IC50 [2]: > 66 µM (inactive)

Oc1ccc[n+](CCCCC[n+]2cccc(O)c2)c1
EC50 [5]: > 112 µM (not active) | EC50 [6]: 19 µM (active)

CC1(Cc2ccc(OC(F)(F)F)cc2)C(=O)Nc2ccc(S(=O)(=O)NC3CCCCC3)cc21 (stereo not drawn)
AC50 (Paired box protein Pax-8): 9.35 µM (active)

COc1cccc(S(=O)(=O)N(C)C[C@H]2OCc3ccccc3-c3c(n(C)c4ccccc34)C(=O)N([C@@H](C)CO)C[C@H]2C)c1
AC50 (Paired box protein Pax-8): 6.16 µM (active)

C[C@H](CO)N1C[C@H](C)[C@@H](CN(C)CC2CCCCC2)Oc2ccc(NC(=O)Nc3ccc4c(c3)OCO4)cc2CC1=O
AC50 (Paired box protein Pax-8): 11 µM (active)

COC(=O)N1CCN(C(=O)Cc2ccc(Cl)c(Cl)c2)[C@H](CN2CCCC2)C1
AC50 (Cytochrome P450 2D6): 20 µM (inconclusive)

CC(=O)N/N=C/c1cc(C)n(-c2ccc(Br)cc2)c1C
AC50 [3]: 0.414 µM (active)

O=C(c1ccccc1)c1cc2ccc(O)cc2oc1=O
EC50 [11]: 8.12 µM (active) | EC50 [5]: 1.14 µM (active) | EC50 [6]: < 0.701 µM (active) | EC50 (Streptokinase A): > 150 µM (not active) | EC50 (Streptococcus): 18.5 µM (active)

CC(=O)Nc1c(I)c(NC(C)=O)c(I)c(C(=O)O)c1I [DIATRIZOATE MEGLUMINE]
EC50 [4]: > 195 µM (not active)
